From article PMC12108080, “Sodium butyrate inhibits the expression of virulence factors in Vibrio cholerae by targeting ToxT protein” (mSphere, 2025)

How the values were obtained:
ToxT [1] = molecular target: T1, ToxT (Vibrio cholerae, UniProt P0C6D6); experiment: intrinsic tryptophan fluorescence quenching, logarithmic plot; type: binding
T1 construct: gene tcpN; 6xHis fusion from pHIS-Tev plasmid, expressed in E. coli BL21(DE3), Ni-agarose purified

ToxT [2] = molecular target: T1, ToxT; type: binding; conditions: 1.0 µM ToxT pre-incubated with TB (40 mM) 20 min, 1 nM PtcpA DNA, pH 7.5
[3] = molecular target: T2, ToxT (His6/NBP-ToxT fusion) (Vibrio cholerae N16961?) (UniProt P0C6D6); experiment: competition; conditions: 10 mM Tris-HCl pH 7.5, 100 mM KCl, 1 mM EDTA, 1 mM DTT, 200 µg/mL BSA, 10% glycerol, […] (temperature not stated)
T2 sequence: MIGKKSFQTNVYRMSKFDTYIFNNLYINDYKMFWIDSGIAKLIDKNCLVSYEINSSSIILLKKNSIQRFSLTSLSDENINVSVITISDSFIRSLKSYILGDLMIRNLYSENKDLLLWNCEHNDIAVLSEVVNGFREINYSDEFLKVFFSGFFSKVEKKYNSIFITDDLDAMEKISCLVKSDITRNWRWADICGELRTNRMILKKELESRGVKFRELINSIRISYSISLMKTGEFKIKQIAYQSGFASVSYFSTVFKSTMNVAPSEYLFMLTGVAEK

Molecule: CCCC(=O)O [SB, sodium butyrate]
- Kd (ToxT [1]): 2600 ± 30 µM

Molecule: CCCC(=O)OCC(COC(=O)CCC)OC(=O)CCC [TB, tributyrate]
- inhibition of DNA binding (ToxT [2]): tributyrate (TB), was used, and it showed no inhibition on ToxT-DNA binding

Molecule: ATTGCTGAGCTAAAGGGGCTGGAAATTCAATGTCATCAGGCTGTTGCCAAGTGACGCGATTCAGTGCGGCTAAATAGAGCGAAGTTAATTGATTCATACTATTATTCAATTTGACGCTTTACCCGATTACCCTAGCTACCTGCAATACCA (double strand) [nonspecific competitor DNA]
- binding [3]: no binding
